Data from publication PMC3575809 (Nucleic Acids Research, 2012).

Key:
Mtb DnaG [1] = target: T1, Mtb DnaG (Mycobacterium tuberculosis, UniProt P9WNW1); test: Mode of inhibition assays; type: biochemical; conditions: for mode of inhibition: Lineweaver–Burk plots, varied NTP and DNA; for n, number of inhibitor molecules bound: alternative model with high cooperativity; for n, number of binding sites on Mtb DnaG: global fit, non-cooperative model
T1 sequence (P9WNW1 1-639): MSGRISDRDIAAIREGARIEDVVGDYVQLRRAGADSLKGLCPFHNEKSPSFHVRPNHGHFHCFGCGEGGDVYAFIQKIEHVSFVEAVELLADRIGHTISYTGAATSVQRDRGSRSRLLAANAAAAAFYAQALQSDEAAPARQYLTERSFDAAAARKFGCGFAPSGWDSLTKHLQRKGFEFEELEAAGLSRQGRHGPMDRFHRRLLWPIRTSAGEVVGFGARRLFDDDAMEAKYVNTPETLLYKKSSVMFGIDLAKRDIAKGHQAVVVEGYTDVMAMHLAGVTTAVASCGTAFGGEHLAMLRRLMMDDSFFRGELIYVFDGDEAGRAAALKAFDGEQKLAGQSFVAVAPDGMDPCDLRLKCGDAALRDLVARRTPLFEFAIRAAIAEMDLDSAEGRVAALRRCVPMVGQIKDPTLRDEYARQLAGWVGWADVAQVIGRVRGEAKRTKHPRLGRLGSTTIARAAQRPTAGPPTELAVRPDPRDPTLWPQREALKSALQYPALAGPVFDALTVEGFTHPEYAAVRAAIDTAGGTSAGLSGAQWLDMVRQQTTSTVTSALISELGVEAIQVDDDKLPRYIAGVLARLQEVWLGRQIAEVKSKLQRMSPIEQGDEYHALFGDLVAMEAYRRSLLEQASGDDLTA

Mtb DnaG [2] = target: T1, Mtb DnaG; type: biochemical; conditions: 10 µM inhibitor (Figure 3); gel, Figures 3 and 9
human DNA polymerase α = conditions: cited from earlier work
human primase = conditions: cited from earlier work
Mtb DnaG [3] = target: T1, Mtb DnaG; test: Dose–response coupled primase–pyrophosphatase assay; conditions: for Hill coefficient: dose–response fit, 1.25 µM DNA, 110 µM NTP, 0.5 µM Mtb DnaG
Mtb DnaG [4] = target: T1, Mtb DnaG; type: biochemical; conditions: for signal change in HTS: 13 µM compound, not enzyme activation but phosphate from the compound
Mtb DnaG (DNA primase) = target: T2, Mtb DnaG (DNA primase) (Mycobacterium tuberculosis H37Rv, UniProt P9WNW1 1-639); test: fluorescence anisotropy
T2 sequence: T1 sequence (P9WNW1 1-639)

Cc1ccc(C(=O)Nc2ccc(S(=O)(=O)O)c3cc(S(=O)(=O)O)cc(S(=O)(=O)O)c23)cc1NC(=O)c1cccc(NC(=O)Nc2cccc(C(=O)Nc3cc(C(=O)Nc4ccc(S(=O)(=O)O)c5cc(S(=O)(=O)O)cc(S(=O)(=O)O)c45)ccc3C)c2)c1 [suramin]
Ki (Mtb DnaG [1]): 3.2 ± 0.5 µM | mode of inhibition (Mtb DnaG [1]): competitive inhibitors with respect to both NTP and DNA | n, number of inhibitor molecules bound (Mtb DnaG [1]): 3 | n, number of binding sites on Mtb DnaG (Mtb DnaG [1]): 4 | effect on synthesis of radioactively labelled RNA products (Mtb DnaG [2]): potent Mtb DnaG inhibitors | mode of inhibition (human DNA polymerase α): DNA- and NTP-competitive inhibitor of human DNA polymerase α and primase, respectively | mode of inhibition (human primase): DNA- and NTP-competitive inhibitor of human DNA polymerase α and primase, respectively | IC50 (Mtb DnaG [3]): 6.3 ± 0.2 µM | Hill coefficient (Mtb DnaG [3]): 2.9 ± 0.1

O=c1oc2c(O)c(O)cc3c(=O)oc4c(O)c(O)cc1c4c23 [ellagic acid]
IC50 (Mtb DnaG [3]): 22 ± 3 µM

CC(C)N(CCC(C(N)=O)(c1ccccc1)c1ccccn1)C(C)C (stereo not shown) [disopyramide phosphate]
signal change in HTS (Mtb DnaG [4]): increase in absorbance

O=C(O)CN(CCN(CC(=O)O)CC(=O)O)CC(=O)O [EDTA, ethylenediaminetetraacetic acid]
inhibition by positive control in HTS (Mtb DnaG [4]): full inhibition

CO[C@H]1C[C@H](O[C@H]2[C@H](C)[C@@H](O[C@@H]3O[C@H](C)C[C@H](N(C)C)[C@H]3O)[C@@H](C)C[C@@]3(CO3)C(=O)[C@H](C)[C@@H](O)[C@@H](C)[C@@H](C)OC(=O)[C@@H]2C)O[C@@H](C)[C@@H]1O [oleandomycin phosphate]
signal change in HTS (Mtb DnaG [4]): increase in absorbance

COc1cccc2c1C(=O)c1c(O)c3c(c(O)c1C2=O)C[C@@](O)(C(=O)CO)C[C@@H]3O[C@H]1C[C@H](N)[C@H](O)[C@H](C)O1 [doxorubicin]
Ki (Mtb DnaG [1]): 2.5 ± 0.5 µM | mode of inhibition (Mtb DnaG [1]): competitive inhibitors with respect to both NTP and DNA | n, number of inhibitor molecules bound (Mtb DnaG [1]): 2 | n, number of binding sites on Mtb DnaG (Mtb DnaG [1]): 3 | effect on synthesis of radioactively labelled RNA products (Mtb DnaG [2]): potent Mtb DnaG inhibitors | IC50 (Mtb DnaG [3]): 7.7 ± 0.5 µM | Hill coefficient (Mtb DnaG [3]): 2.0 ± 0.2

O=C(O)c1ccccc1OP(=O)(O)O [fosfosal]
signal change in HTS (Mtb DnaG [4]): increase in absorbance

CCGAATCAGTCCGACGACGCATCAGCAC (ssDNA) [28-mer ssDNA]
Kd (Mtb DnaG (DNA primase)): 0.036 ± 0.016 µM
